Residues, ends and D or L forms follow the SMILES beside them. *: point of attachment. DOTA = O=C(O)CN1CCN(CC(=O)O)CCN(CC(=O)*)CCN(CC(=O)O)CC1; X1 = Cc1ccc(CCCC(=O)NCCOCCOCCOCCOCC(=O)*)cc1; βAla = NCCC(=O)O
How the values were obtained:
[1] = in vivo; design: species or system mice; conditions: male, SCID, mouse, iv, total radioactivity
Method: (§1) The distribution of [^67Ga]Ga/[^111In]In/[^177Lu]Lu-DT14D was investigated in male severe combined immunodeficiency (SCID) mice (49 mice in total, 6 weeks of age on arrival date, 22 ± 4 g, NCSR “Demokritos” Animal House, Athens, Greece) bearing NTS1R-positive AsPC-1 xenografts in their flanks. For xenograft induction, suspensions of freshly harvested AsPC-1 cells (5 × 10^6 cells in 150 µL sterile PBS) were subcutaneously injected into the mice’s flanks. The animals were kept under aseptic conditions and 4 weeks later developed well palpable masses at the inoculation sites (100 ± 50 mg) and biodistribution was conducted. On the day of the experiment, the animals received a bolus (100 μL, in vehicle: saline/EtOH 9/1 v/v) containing the radioligand via the tail vein. The following groups of four animals per time point, per treatment, were included per radioligand (the 4 h block groups comprised 3 animals instead) including the respective (radio)ligand amounts injected: i. 78–91 kBq [^67Ga]Ga-DT14D corresponding to 7–17 pmol DT14D at 1 and 4 h pi plus 4 h block (coinjection with 100 µg NT); ii. 74–92 kBq [^111In]In-DT14D corresponding to 20–25 pmol at 4 h (controls), 4 h pi (Entresto®; animals receiving a slurry of 12 mg/200 µL Entresto® oral gavage 30 min in advance) and 4 h block (coinjection with 100 µg NT); 24 h pi (including both controls and Entresto® mice groups); and iii. 730 kBq [^177Lu]Lu-DT14D corresponding to 40 pmol DT14D at 4, 24, 48, and 72 h pi plus 4 h block (co-injection with 100 µg NT). The animals were euthanized at predetermined time intervals, dissected and blood samples, organs of interest, and tumors were collected, weighed, and counted in the gamma counter. Biodistribution data were calculated as percent of the injected activity per gram tissue (%IA/g) with the aid of suitable standards of the administered activity. Results as the mean %IA/g values ± sd were obtained and statistical analysis was performed with PRISM^TM GraphPad—10.2 Software (San Diego, CA/USA), applying 2-way ANOVA with Tukey’s post hoc analysis, or, in the case of two variables, Šídák’s multiple comparisons test was adopted; differences with p < 0.05 were considered as statistically significant.

[2] = test system: NTS1R-positive AsPC-1 xenografts; assay: in vivo; design: species or system mice; conditions: male, SCID, mouse, iv
Method: as §1

CC[C@H](C)[C@H](NC(=O)[C@H](Cc1ccc(O)cc1)NC(=O)[C@@H]1CCCN1C(=O)[C@H](CCCNC(=N)N)NC(=O)[C@H](CCCNC(=N)N)NC(=O)[C@H](CCCCNC(=O)COCCOCCOCCOCCNC(=O)CCCc1ccc(C)cc1)NC(=O)CCNC(=O)CCNC(=O)CCNC(=O)CN1CCN(CC(=O)O)CCN(CC(=O)O)CCN(CC(=O)O)CC1)C(=O)N[C@@H](CC(C)C)C(=O)O [[^67Ga]Ga-DT14D, metal not drawn] ({DOTA-βAla-βAla-βAla}-K(X1)RRPYIL-OH)
tissue uptake at 1 h ([1]; Biodistribution, AsPC-1 Tumor): 11.4 ± 1.25 %ID/g | tissue uptake at 1 h ([1]; Biodistribution, Blood): 9.52 ± 0.76 %ID/g | tissue uptake at 1 h ([1]; Biodistribution, Femur): 2.24 ± 0.23 %ID/g | tissue uptake at 1 h ([1]; Biodistribution, Heart): 2.86 ± 0.16 %ID/g | tissue uptake at 1 h ([1]; Biodistribution, Intestines): 2.81 ± 0.53 %ID/g | tissue uptake at 1 h ([1]; Biodistribution, Kidneys): 7.1 ± 1.12 %ID/g | tissue uptake at 1 h ([1]; Biodistribution, Liver): 3.74 ± 0.37 %ID/g | tissue uptake at 1 h ([1]; Biodistribution, Lungs): 4.31 ± 0.28 %ID/g | tissue uptake at 1 h ([1]; Biodistribution, Muscle): 1.14 ± 0.15 %ID/g | tissue uptake at 1 h ([1]; Biodistribution, Pancreas): 1.41 ± 0.12 %ID/g | tissue uptake at 1 h ([1]; Biodistribution, Spleen): 2.86 ± 0.33 %ID/g | tissue uptake at 1 h ([1]; Biodistribution, Stomach): 0.97 ± 0.27 %ID/g | tissue uptake at 4 h ([1]; Biodistribution, Stomach): 0.45 ± 0.08 %ID/g | tissue to tissue ratio at 1 h ([1]; Tumor/Blood ratio): 1.2 ± 0.06 | tissue to tissue ratio at 1 h ([1]; Tumor/Heart ratio): 3.99 ± 0.24 | tissue to tissue ratio at 1 h ([1]; Tumor/Intestines ratio): 4.12 ± 0.52 | tissue to tissue ratio at 1 h ([1]; Tumor/Kidneys ratio): 1.62 ± 0.13 | tissue to tissue ratio at 4 h ([1]; Tumor/Kidneys ratio): 1.15 ± 0.12 | tissue to tissue ratio at 1 h ([1]; Tumor/Liver ratio): 3.05 ± 0.19 | tissue to tissue ratio at 1 h ([1]; Tumor/Lungs ratio): 2.64 ± 0.15 | tissue to tissue ratio at 4 h ([1]; Tumor/Lungs ratio): 3.28 ± 0.21 | tissue to tissue ratio at 1 h ([1]; Tumor/Muscle ratio): 10.1 ± 1.09 | tissue to tissue ratio at 1 h ([1]; Tumor/Pancreas ratio): 8.09 ± 0.24 | tissue to tissue ratio at 1 h ([1]; Tumor/Spleen ratio): 4 ± 0.08 | tissue to tissue ratio at 1 h ([1]; Tumor/Stomach ratio): 12.2 ± 2.71 | tissue to tissue ratio at 4 h ([1]; Tumor/Stomach ratio): 9.96 ± 1.68

CC[C@H](C)[C@H](NC(=O)[C@H](Cc1ccc(O)cc1)NC(=O)[C@@H]1CCCN1C(=O)[C@H](CCCNC(=N)N)NC(=O)[C@H](CCCNC(=N)N)NC(=O)[C@H](CCCCNC(=O)COCCOCCOCCOCCNC(=O)CCCc1ccc(C)cc1)NC(=O)CCNC(=O)CCNC(=O)CCNC(=O)CN1CCN(CC(=O)O)CCN(CC(=O)O)CCN(CC(=O)O)CC1)C(=O)N[C@@H](CC(C)C)C(=O)O [[^67Ga]Ga-DT14D] [metal not drawn] ({DOTA-βAla-βAla-βAla}-K(X1)RRPYIL-OH)
Biodistribution, Blood ([2]; 4 h): 2.15 ± 0.40 %IA/g | Biodistribution, Femur ([2]; 4 h): 1.67 ± 0.36 %IA/g | Biodistribution, Heart ([2]; 4 h): 0.76 ± 0.12 %IA/g | Biodistribution, Intestines ([2]; 4 h): 2.32 ± 0.39 %IA/g | Biodistribution, Kidneys ([2]; 4 h): 3.87 ± 0.96 %IA/g | Biodistribution, Liver ([2]; 4 h): 3.44 ± 0.15 %IA/g | Biodistribution, Lungs ([2]; 4 h): 1.34 ± 0.20 %IA/g | Biodistribution, Muscle ([2]; 4 h): 0.27 ± 0.04 %IA/g | Biodistribution, Pancreas ([2]; 4 h): 0.51 ± 0.08 %IA/g | Biodistribution, Spleen ([2]; 4 h): 1.75 ± 0.67 %IA/g | Tumor/Blood ratio ([2]; 4 h): 2.06 ± 0.21 | Tumor/Heart ratio ([2]; 4 h): 5.75 ± 0.17 | Tumor/Intestines ratio ([2]; 4 h): 1.89 ± 0.06 | Tumor/Liver ratio ([2]; 4 h): 1.28 ± 0.24 | Tumor/Muscle ratio ([2]; 4 h): 16.50 ± 2.36 | Tumor/Pancreas ratio ([2]; 4 h): 8.69 ± 0.52 | Tumor/Spleen ratio ([2]; 4 h): 2.50 ± 0.23

CC[C@H](C)[C@H](NC(=O)[C@H](Cc1ccc(O)cc1)NC(=O)[C@@H]1CCCN1C(=O)[C@H](CCCNC(=N)N)NC(=O)[C@H](CCCNC(=N)N)NC(=O)[C@H](CCCCNC(=O)COCCOCCOCCOCCNC(=O)CCCc1ccc(C)cc1)NC(=O)CCNC(=O)CCNC(=O)CCNC(=O)CN1CCN(CC(=O)O)CCN(CC(=O)O)CCN(CC(=O)O)CC1)C(=O)N[C@@H](CC(C)C)C(=O)O [[^111In]In-DT14D, metal not drawn] ({DOTA-βAla-βAla-βAla}-K(X1)RRPYIL-OH)
tissue uptake at 24 h ([1]; Biodistribution, AsPC-1 Tumor): 2.82 ± 0.68 %ID/g | tissue uptake at 24 h ([1]; Biodistribution, Kidneys): 1.7 ± 0.13 %ID/g | tissue to tissue ratio at 24 h ([1]; Tumor/Intestines ratio): 4.07 ± 0.42 | tissue to tissue ratio at 24 h ([1]; Tumor/Kidneys ratio): 1.66 ± 0.4 | tissue to tissue ratio at 24 h ([1]; Tumor/Spleen ratio): 1.77 ± 0.32

CC[C@H](C)[C@H](NC(=O)[C@H](Cc1ccc(O)cc1)NC(=O)[C@@H]1CCCN1C(=O)[C@H](CCCNC(=N)N)NC(=O)[C@H](CCCNC(=N)N)NC(=O)[C@H](CCCCNC(=O)COCCOCCOCCOCCNC(=O)CCCc1ccc(C)cc1)NC(=O)CCNC(=O)CCNC(=O)CCNC(=O)CN1CCN(CC(=O)O)CCN(CC(=O)O)CCN(CC(=O)O)CC1)C(=O)N[C@@H](CC(C)C)C(=O)O [[^111In]In-DT14D] [metal not drawn] ({DOTA-βAla-βAla-βAla}-K(X1)RRPYIL-OH)
Biodistribution, Blood ([2]; 4 h): 0.66 ± 0.19 %IA/g | Biodistribution, Femur ([2]; 4 h): 0.50 ± 0.06 %IA/g | Biodistribution, Heart ([2]; 4 h): 0.28 ± 0.06 %IA/g | Biodistribution, Intestines ([2]; 4 h): 1.34 ± 0.06 %IA/g | Biodistribution, Liver ([2]; 4 h): 0.45 ± 0.04 %IA/g | Biodistribution, Lungs ([2]; 4 h): 0.79 ± 0.12 %IA/g | Biodistribution, Muscle ([2]; 4 h): 0.13 ± 0.03 %IA/g | Biodistribution, Pancreas ([2]; 4 h): 0.24 ± 0.04 %IA/g | Biodistribution, Spleen ([2]; 4 h): 0.84 ± 0.07 %IA/g | Biodistribution, Stomach ([2]; 4 h): 0.39 ± 0.05 %IA/g | Biodistribution, Blood ([2]; 24 h): 0.46 ± 0.08 %IA/g | Biodistribution, Femur ([2]; 24 h): 1.35 ± 0.36 %IA/g | Biodistribution, Heart ([2]; 24 h): 0.62 ± 0.23 %IA/g | Biodistribution, Intestines ([2]; 24 h): 0.69 ± 0.09 %IA/g | Biodistribution, Liver ([2]; 24 h): 0.33 ± 0.08 %IA/g | Biodistribution, Lungs ([2]; 24 h): 0.61 ± 0.09 %IA/g | Biodistribution, Muscle ([2]; 24 h): 0.40 ± 0.10 %IA/g | Biodistribution, Pancreas ([2]; 24 h): 0.63 ± 0.39 %IA/g | Biodistribution, Spleen ([2]; 24 h): 1.59 ± 0.14 %IA/g | Biodistribution, Stomach ([2]; 24 h): 0.27 ± 0.10 %IA/g | Tumor/Intestines ratio ([2]; 24 h): 3.16 ± 0.49 | Tumor/Kidneys ratio ([2]; 24 h): 1.42 ± 0.25 | Tumor/Spleen ratio ([2]; 24 h): 1.84 ± 0.15

CC[C@H](C)[C@H](NC(=O)[C@H](Cc1ccc(O)cc1)NC(=O)[C@@H]1CCCN1C(=O)[C@H](CCCNC(=N)N)NC(=O)[C@H](CCCNC(=N)N)NC(=O)[C@H](CCCCNC(=O)COCCOCCOCCOCCNC(=O)CCCc1ccc(C)cc1)NC(=O)CCNC(=O)CCNC(=O)CCNC(=O)CN1CCN(CC(=O)O)CCN(CC(=O)O)CCN(CC(=O)O)CC1)C(=O)N[C@@H](CC(C)C)C(=O)O [[^177Lu]Lu-DT14D] [metal not drawn] ({DOTA-βAla-βAla-βAla}-K(X1)RRPYIL-OH)
Biodistribution, Blood ([2]; 4 h): 0.72 ± 0.19 %IA/g | Biodistribution, Femur ([2]; 4 h): 0.45 ± 0.06 %IA/g | Biodistribution, Heart ([2]; 4 h): 0.32 ± 0.09 %IA/g | Biodistribution, Intestines ([2]; 4 h): 1.27 ± 0.14 %IA/g | Biodistribution, Kidneys ([2]; 4 h): 3.24 ± 0.20 %IA/g | Biodistribution, Liver ([2]; 4 h): 1.34 ± 0.14 %IA/g | Biodistribution, Lungs ([2]; 4 h): 1.63 ± 0.86 %IA/g | Biodistribution, Muscle ([2]; 4 h): 0.11 ± 0.02 %IA/g | Biodistribution, Pancreas ([2]; 4 h): 0.21 ± 0.03 %IA/g | Biodistribution, Spleen ([2]; 4 h): 1.36 ± 0.37 %IA/g | Biodistribution, Stomach ([2]; 4 h): 0.33 ± 0.12 %IA/g | Tumor/Blood ratio ([2]; 4 h): 5.51± 1.56 | Tumor/Heart ratio ([2]; 4 h): 12.36 ± 3.08 | Tumor/Intestines ratio ([2]; 4 h): 2.99 ± 0.57 | Tumor/Kidneys ratio ([2]; 4 h): 1.17 ± 0.15 | Tumor/Liver ratio ([2]; 4 h): 2.83 ± 0.45 | Tumor/Lungs ratio ([2]; 4 h): 2.97 ± 1.75 | Tumor/Muscle ratio ([2]; 4 h): 34.86 ± 6.98 | Tumor/Pancreas ratio ([2]; 4 h): 18.16 ± 3.31 | Tumor/Spleen ratio ([2]; 4 h): 2.83 ± 0.35 | Tumor/Stomach ratio ([2]; 4 h): 12.29 ± 3.81 | Biodistribution, Femur ([2]; 24 h): 0.34 ± 0.03 %IA/g | Biodistribution, Intestines ([2]; 24 h): 0.45 ± 0.03 %IA/g | Biodistribution, Liver ([2]; 24 h): 1.18 ± 0.18 %IA/g | Biodistribution, Lungs ([2]; 24 h): 0.17 ± 0.01 %IA/g | Biodistribution, Muscle ([2]; 24 h): 0.03 ± 0.00 %IA/g | Biodistribution, Spleen ([2]; 24 h): 1.06 ± 0.16 %IA/g | Tumor/Blood ratio ([2]; 24 h): 33.51 ± 2.94 | Tumor/Heart ratio ([2]; 24 h): 25.00 ± 3.78 | Tumor/Intestines ratio ([2]; 24 h): 3.95 ± 0.39 | Tumor/Kidneys ratio ([2]; 24 h): 1.46 ± 0.33 | Tumor/Liver ratio ([2]; 24 h): 1.54 ± 0.32 | Tumor/Lungs ratio ([2]; 24 h): 9.32 ± 2.56 | Tumor/Muscle ratio ([2]; 24 h): 58.07 ± 8.34 | Tumor/Pancreas ratio ([2]; 24 h): 22.31 ± 1.64 | Tumor/Spleen ratio ([2]; 24 h): 1.70 ± 0.32 | Tumor/Stomach ratio ([2]; 24 h): 31.97 ± 8.07

— PMC11944670, “Reshaping [^99mTc]Tc-DT11 to DT14D Tagged with Trivalent Radiometals for NTS1R-Positive Cancer Theranostics” (Pharmaceutics, 2025)
